Read-outs that look alike come from different tables or passages of the source.
Columns and labels:
[1] = system: 22RV1 cells; assay: Antiproliferative assay (resazurin, 72 h) in 22RV1 cells; format: cell-based; conditions: for inhibition at 1 µM / IC50: Homo sapiens; for antiproliferative activity, in words: enzalutamide-resistant cell lines LNCaP95 and 22RV1, SAR statements
Method: (§1) 22Rv1 cells were obtained from ATCC. LNCaP95 cells were provided by Dr. Yan Dong’s laboratory (Tulane University School of Medicine). LNCaP95 cells were maintained in an RPMI1640 medium with charcoal-stripped serum (CSS). 22Rv1 cells were maintained in an RPMI1640 medium with 10% FBS. Cells were seeded in 96-well plates (5 × 10^3 cells/well) containing a 50 μL growth medium for 24 h. After medium removal, a 100 μL fresh medium containing individual compounds at different concentrations was added to each well and incubated at 37 °C for 72 h. Then, 20 μL of resazurin was added for 2 h before recording fluorescence at 560 nm (excitation) and 590 nm (emission) using a Victor microtiter plate fluorometer (Perkin-Elmer, Waltham, MA, USA).

[2] = system: LNCaP95 cells; assay: Antiproliferative assay (resazurin, 72 h) in LNCaP95 cells; format: cell-based; conditions: read-out: IC50 (μM) LNCaP95
Method: as §1

[3] = 22RV1, 1.0 μM, read-out: Inhibitory Rate 22RV1 @1.0 μM
[4] = antiproliferation, 22RV1, 72 h, mean of three independent experiments, read-out: IC50 (μM) 22RV1
[5] = observed, −log IC50, 22RV1 antiproliferation, read-out: Obs pIC50 (converted)
[6] = LNCaP-95, antiproliferation, LNCaP95, 72 h, mean of three independent experiments

Row | SMILES | IC50 [1, 4] [µM] | IC50 [1, 5] [µM] | IC50 [2, 6] [µM] | inhibition at 1 µM [1, 3] [%] | antiproliferative activity, in words [1] | IC50 ([1]; 22Rv1, 72 h, read-out: IC50 (μM) 22RV1) [µM] | inhibition at 1 µM ([1]; 22Rv1, read-out: Inhibitory Rate 22RV1 @1.0 μM) [%] | IC50 ([1]; 22Rv1, read-out: Obs pIC50 (converted)) [µM] | IC50 ([2]; LNCaP-95, 72 h) [µM]
1 | O=C(Nc1ccc([N+](=O)[O-])cc1F)c1ccc(Cl)cc1O [A1] | 0.467 ± 0.131 | 0.467 | 1.19 ± 0.53 | 54.3 | – | – | – | – | –
2 | Cc1cc([N+](=O)[O-])ccc1NC(=O)c1ccc(Cl)cc1O [A2] | 0.676 ± 0.245 | 0.676 | 0.62 ± 0.311 | 47.1 | – | – | – | – | –
3 | COc1cc([N+](=O)[O-])ccc1NC(=O)c1ccc(Cl)cc1O [A3] | 0.714 ± 0.303 | 0.714 | 2.48 ± 0.702 | 50 | – | – | – | – | –
4 | O=C(Nc1ccc([N+](=O)[O-])c(Cl)c1)c1ccc(Cl)cc1O [A4] | 0.713 ± 0.178 | 0.713 | 3.43 ± 0.49 | 47.5 | – | – | – | – | –
5 | O=C(Nc1ccc([N+](=O)[O-])c(F)c1)c1ccc(Cl)cc1O [A5] | 0.924 ± 0.414 | 0.925 | 0.937 ± 0.351 | 44.2 | – | – | – | – | –
6 | O=C(Nc1ccc([N+](=O)[O-])c(C(F)(F)F)c1)c1ccc(Cl)cc1O [A6] | 0.424 ± 0.12 | 0.424 | 0.214 ± 0.067 | 54.4 | equivalent or improved anti-proliferation potency | – | – | – | –
7 | COc1cc(NC(=O)c2ccc(Cl)cc2O)ccc1[N+](=O)[O-] [A8] | 2.11 ± 0.52 | 2.11 | 0.615 ± 0.138 | 35.9 | – | – | – | – | –
8 | O=C(Nc1ccc([N+](=O)[O-])cc1C(F)(F)F)c1cc(Cl)ccc1O [A11] | – | – | – | -8.3 | – | – | – | – | –
9 | O=C(Nc1ccc([N+](=O)[O-])c(Cl)c1)c1cc(Cl)ccc1O [A14] | – | – | – | – | – | 0.386 ± 0.171 | 51.3 | 0.386 | 1.67 ± 0.25
10 | O=C(Nc1ccc([N+](=O)[O-])c(C(F)(F)F)c1)c1cc(Cl)ccc1O [A16] | 0.556 ± 0.112 | 0.556 | 0.693 ± 0.314 | 47.5 | – | – | – | – | –
11 | O=C(Nc1ccc([N+](=O)[O-])cc1Cl)c1cc(Br)ccc1O [A19] | – | – | – | 13.4 | dramatic loss of activity | – | – | – | –
12 | COc1cc([N+](=O)[O-])ccc1NC(=O)c1cc(Br)ccc1O [A20] | 0.242 ± 0.044 | 0.242 | 0.304 ± 0.053 | 60.2 | equivalent or improved anti-proliferation potency | – | – | – | –

More lines, main results first:

Row | IC50 [1, 4] [µM] | IC50 [1, 5] [µM] | IC50 [2, 6] [µM] | SMILES | inhibition at 1 µM [1, 3] [%] | antiproliferative activity, in words [1] | IC50 ([1]; 22Rv1, 72 h, read-out: IC50 (μM) 22RV1) [µM] | inhibition at 1 µM ([1]; 22Rv1, read-out: Inhibitory Rate 22RV1 @1.0 μM) [%] | IC50 ([1]; 22Rv1, read-out: Obs pIC50 (converted)) [µM] | IC50 ([2]; LNCaP-95, 72 h) [µM]
13 | 0.976 ± 0.205 | 0.975 | 0.789 ± 0.436 | Cc1cc(NC(=O)c2ccc(Cl)cc2O)ccc1[N+](=O)[O-] [A7] | 42.5 | – | – | – | – | –
14 | 0.581 ± 0.289 | 0.581 | 0.812 ± 0.374 | O=C(Nc1ccc([N+](=O)[O-])cc1)c1cc(Cl)ccc1O [A9] | 44.9 | – | – | – | – | –
15 | 0.271 ± 0.125 | 0.271 | 0.373 ± 0.069 | O=C(Nc1ccc([N+](=O)[O-])cc1F)c1cc(Cl)ccc1O [A10] | 56 | – | – | – | – | –
16 | 0.248 ± 0.063 | 0.248 | 0.493 ± 0.105 | Cc1cc([N+](=O)[O-])ccc1NC(=O)c1cc(Cl)ccc1O [A12] | 58 | – | – | – | – | –
17 | 0.158 ± 0.044 | 0.158 | 0.444 ± 0.119 | COc1cc([N+](=O)[O-])ccc1NC(=O)c1cc(Cl)ccc1O [A13] | 57.3 | – | – | – | – | –
18 | 0.28 ± 0.092 | 0.28 | 0.755 ± 0.221 | O=C(Nc1ccc([N+](=O)[O-])c(F)c1)c1cc(Cl)ccc1O [A15] | 55.4 | – | – | – | – | –
19 | 0.324 ± 0.058 | 0.324 | 0.867 ± 0.298 | Cc1cc(NC(=O)c2cc(Cl)ccc2O)ccc1[N+](=O)[O-] [A17] | 50.1 | – | – | – | – | –
20 | 0.483 ± 0.145 | 0.483 | 2.11 ± 0.46 | COc1cc(NC(=O)c2cc(Cl)ccc2O)ccc1[N+](=O)[O-] [A18] | 55.4 | – | – | – | – | –
